Reference: patent US12383545B1, “Treatment of migraine” (priority 2018, dated 2025)

Key:
Bilirubin Total = experiment: Example 5: postbaseline hepatic laboratory parameter values of clinical interest, Bilirubin Total; assay type: in vivo, human; conditions: safety population
Excerpt: (§1) This study consisted of a 4-week screening and baseline period and a 12-week double-blind treatment period, which was followed by a 4-week safety follow-up period. Total study duration is 20-weeks.
(§2) To be randomized, eligible patients had to be 18 to 75 years of age (inclusive), have a history of migraine with or without aura for at least 1 year consistent with a diagnosis according to the International Classification of Headache Disorders criteria, 3rd edition, beta version, have experienced 4 to 14 migraine/probable migraine headache days and <15 headache days in the 28-day baseline period. Patients who had clinically significant hematologic, endocrine, cardiovascular, cerebrovascular, pulmonary, renal, hepatic, gastrointestinal, or neurologic disease were excluded from the study.
(§3) A total of 834 patients were randomized to double-blind treatment (ITT population), and 825 patients took at least 1 dose of double-blind IP (safety population). […] The primary efficacy variable was the change from baseline in mean monthly migraine/probable migraine headache days across the 12-week treatment period. The secondary efficacy variables were the change from baseline in mean monthly headache days across the 12-week treatment period, proportion of patients with at least a 50% reduction in mean monthly migraine/probable migraine headache days across the 12-week treatment period, and the change from baseline in mean monthly acute medication use days across the 12-week treatment period.

Alkaline Phosphatase = experiment: Example 5: postbaseline hepatic laboratory parameter values of clinical interest, Alkaline Phosphatase; assay type: in vivo, human; conditions: safety population
Excerpt: as §1, §2, §3

C[C@@H]1[C@H](c2c(F)ccc(F)c2F)C[C@H](NC(=O)c2cnc3c(c2)C[C@@]2(C3)C(=O)Nc3ncccc32)C(=O)N1CC(F)(F)F [atogepant]
(4.4) %: Participants with postbaseline Bilirubin Total (umol/L) >=1 * ULN, (%) (Bilirubin Total; Atogepant 60 mg QD (N = 186))
0: Participants with postbaseline Bilirubin Total (umol/L) >=2 * ULN, n/N1 (Bilirubin Total; Atogepant 10 mg QD (N = 93)) | Participants with postbaseline Bilirubin Total (umol/L) >=3 * ULN, n/N1 (Bilirubin Total; Atogepant 10 mg QD (N = 93)) | Participants with postbaseline Bilirubin Total (umol/L) >=5 * ULN, n/N1 (Bilirubin Total; Atogepant 10 mg QD (N = 93)) | Participants with postbaseline Bilirubin Total (umol/L) >=10 * ULN, n/N1 (Bilirubin Total; Atogepant 10 mg QD (N = 93)) | Participants with postbaseline Bilirubin Total (umol/L) >=20 * ULN, n/N1 (Bilirubin Total; Atogepant 10 mg QD (N = 93)) | Participants with postbaseline Bilirubin Total (umol/L) >=2 * ULN, n/N1 (Bilirubin Total; Atogepant 30 mg BID (N = 86)) | Participants with postbaseline Bilirubin Total (umol/L) >=3 * ULN, n/N1 (Bilirubin Total; Atogepant 30 mg BID (N = 86)) | Participants with postbaseline Bilirubin Total (umol/L) >=5 * ULN, n/N1 (Bilirubin Total; Atogepant 30 mg BID (N = 86)) | Participants with postbaseline Bilirubin Total (umol/L) >=10 * ULN, n/N1 (Bilirubin Total; Atogepant 30 mg BID (N = 86)) | Participants with postbaseline Bilirubin Total (umol/L) >=20 * ULN, n/N1 (Bilirubin Total; Atogepant 30 mg BID (N = 86)) | Participants with postbaseline Bilirubin Total (umol/L) >=2 * ULN, n/N1 (Bilirubin Total; Atogepant 30 mg QD (N = 183)) | Participants with postbaseline Bilirubin Total (umol/L) >=3 * ULN, n/N1 (Bilirubin Total; Atogepant 30 mg QD (N = 183)) | Participants with postbaseline Bilirubin Total (umol/L) >=5 * ULN, n/N1 (Bilirubin Total; Atogepant 30 mg QD (N = 183)) | Participants with postbaseline Bilirubin Total (umol/L) >=10 * ULN, n/N1 (Bilirubin Total; Atogepant 30 mg QD (N = 183)) | Participants with postbaseline Bilirubin Total (umol/L) >=20 * ULN, n/N1 (Bilirubin Total; Atogepant 30 mg QD (N = 183)) | Participants with postbaseline Bilirubin Total (umol/L) >=1.5 * ULN, n/N1 (Bilirubin Total; Atogepant 60 mg BID (N = 91)) | Participants with postbaseline Bilirubin Total (umol/L) >=2 * ULN, n/N1 (Bilirubin Total; Atogepant 60 mg BID (N = 91)) | Participants with postbaseline Bilirubin Total (umol/L) >=3 * ULN, n/N1 (Bilirubin Total; Atogepant 60 mg BID (N = 91)) | Participants with postbaseline Bilirubin Total (umol/L) >=5 * ULN, n/N1 (Bilirubin Total; Atogepant 60 mg BID (N = 91)) | Participants with postbaseline Bilirubin Total (umol/L) >=10 * ULN, n/N1 (Bilirubin Total; Atogepant 60 mg BID (N = 91)) | Participants with postbaseline Bilirubin Total (umol/L) >=20 * ULN, n/N1 (Bilirubin Total; Atogepant 60 mg BID (N = 91)) | Participants with postbaseline Bilirubin Total (umol/L) >=2 * ULN, n/N1 (Bilirubin Total; Atogepant 60 mg QD (N = 186)) | Participants with postbaseline Bilirubin Total (umol/L) >=3 * ULN, n/N1 (Bilirubin Total; Atogepant 60 mg QD (N = 186)) | Participants with postbaseline Bilirubin Total (umol/L) >=5 * ULN, n/N1 (Bilirubin Total; Atogepant 60 mg QD (N = 186)) | Participants with postbaseline Bilirubin Total (umol/L) >=10 * ULN, n/N1 (Bilirubin Total; Atogepant 60 mg QD (N = 186)) | Participants with postbaseline Bilirubin Total (umol/L) >=20 * ULN, n/N1 (Bilirubin Total; Atogepant 60 mg QD (N = 186)) | Participants with postbaseline Alkaline Phosphatase (U/L) >=3 * ULN, n/N1 (Alkaline Phosphatase; Atogepant 10 mg QD (N = 93)) | Participants with postbaseline Alkaline Phosphatase (U/L) >=5 * ULN, n/N1 (Alkaline Phosphatase; Atogepant 10 mg QD (N = 93)) | Participants with postbaseline Alkaline Phosphatase (U/L) >=10 * ULN, n/N1 (Alkaline Phosphatase; Atogepant 10 mg QD (N = 93)) | Participants with postbaseline Alkaline Phosphatase (U/L) >=20 * ULN, n/N1 (Alkaline Phosphatase; Atogepant 10 mg QD (N = 93)) | Participants with postbaseline Alkaline Phosphatase (U/L) >=1.5 * ULN, n/N1 (Alkaline Phosphatase; Atogepant 30 mg BID (N = 86)) | Participants with postbaseline Alkaline Phosphatase (U/L) >=2 * ULN, n/N1 (Alkaline Phosphatase; Atogepant 30 mg BID (N = 86)) | Participants with postbaseline Alkaline Phosphatase (U/L) >=3 * ULN, n/N1 (Alkaline Phosphatase; Atogepant 30 mg BID (N = 86)) | Participants with postbaseline Alkaline Phosphatase (U/L) >=5 * ULN, n/N1 (Alkaline Phosphatase; Atogepant 30 mg BID (N = 86)) | Participants with postbaseline Alkaline Phosphatase (U/L) >=10 * ULN, n/N1 (Alkaline Phosphatase; Atogepant 30 mg BID (N = 86)) | Participants with postbaseline Alkaline Phosphatase (U/L) >=20 * ULN, n/N1 (Alkaline Phosphatase; Atogepant 30 mg BID (N = 86)) | Participants with postbaseline Alkaline Phosphatase (U/L) >=2 * ULN, n/N1 (Alkaline Phosphatase; Atogepant 30 mg QD (N = 183)) | Participants with postbaseline Alkaline Phosphatase (U/L) >=3 * ULN, n/N1 (Alkaline Phosphatase; Atogepant 30 mg QD (N = 183)) | Participants with postbaseline Alkaline Phosphatase (U/L) >=5 * ULN, n/N1 (Alkaline Phosphatase; Atogepant 30 mg QD (N = 183)) | Participants with postbaseline Alkaline Phosphatase (U/L) >=10 * ULN, n/N1 (Alkaline Phosphatase; Atogepant 30 mg QD (N = 183)) | Participants with postbaseline Alkaline Phosphatase (U/L) >=20 * ULN, n/N1 (Alkaline Phosphatase; Atogepant 30 mg QD (N = 183)) | Participants with postbaseline Alkaline Phosphatase (U/L) >=1.5 * ULN, n/N1 (Alkaline Phosphatase; Atogepant 60 mg BID (N = 91)) | Participants with postbaseline Alkaline Phosphatase (U/L) >=2 * ULN, n/N1 (Alkaline Phosphatase; Atogepant 60 mg BID (N = 91)) | Participants with postbaseline Alkaline Phosphatase (U/L) >=3 * ULN, n/N1 (Alkaline Phosphatase; Atogepant 60 mg BID (N = 91)) | Participants with postbaseline Alkaline Phosphatase (U/L) >=5 * ULN, n/N1 (Alkaline Phosphatase; Atogepant 60 mg BID (N = 91)) | Participants with postbaseline Alkaline Phosphatase (U/L) >=10 * ULN, n/N1 (Alkaline Phosphatase; Atogepant 60 mg BID (N = 91)) | Participants with postbaseline Alkaline Phosphatase (U/L) >=20 * ULN, n/N1 (Alkaline Phosphatase; Atogepant 60 mg BID (N = 91)) | Participants with postbaseline Alkaline Phosphatase (U/L) >=1.5 * ULN, n/N1 (Alkaline Phosphatase; Atogepant 60 mg QD (N = 186)) | Participants with postbaseline Alkaline Phosphatase (U/L) >=2 * ULN, n/N1 (Alkaline Phosphatase; Atogepant 60 mg QD (N = 186)) | Participants with postbaseline Alkaline Phosphatase (U/L) >=3 * ULN, n/N1 (Alkaline Phosphatase; Atogepant 60 mg QD (N = 186)) | Participants with postbaseline Alkaline Phosphatase (U/L) >=5 * ULN, n/N1 (Alkaline Phosphatase; Atogepant 60 mg QD (N = 186)) | Participants with postbaseline Alkaline Phosphatase (U/L) >=10 * ULN, n/N1 (Alkaline Phosphatase; Atogepant 60 mg QD (N = 186)) | Participants with postbaseline Alkaline Phosphatase (U/L) >=20 * ULN, n/N1 (Alkaline Phosphatase; Atogepant 60 mg QD (N = 186))
(2.4) %: Participants with postbaseline Alkaline Phosphatase (U/L) >=1 * ULN, (%) (Alkaline Phosphatase; Atogepant 30 mg BID (N = 86))
(0.6) %: Participants with postbaseline Alkaline Phosphatase (U/L) >=1.5 * ULN, (%) (Alkaline Phosphatase; Atogepant 30 mg QD (N = 183))
2/181: Participants with postbaseline Bilirubin Total (umol/L) >=1.5 * ULN, n/N1 (Bilirubin Total; Atogepant 60 mg QD (N = 186))
1/88: Participants with postbaseline Bilirubin Total (umol/L) >=1 * ULN, n/N1 (Bilirubin Total; Atogepant 60 mg BID (N = 91))
2/84: Participants with postbaseline Alkaline Phosphatase (U/L) >=1 * ULN, n/N1 (Alkaline Phosphatase; Atogepant 30 mg BID (N = 86))
(5.4) %: Participants with postbaseline Alkaline Phosphatase (U/L) >=1 * ULN, (%) (Alkaline Phosphatase; Atogepant 10 mg QD (N = 93))
2/179: Participants with postbaseline Bilirubin Total (umol/L) >=1.5 * ULN, n/N1 (Bilirubin Total; Atogepant 30 mg QD (N = 183))
12/181: Participants with postbaseline Alkaline Phosphatase (U/L) >=1 * ULN, n/N1 (Alkaline Phosphatase; Atogepant 60 mg QD (N = 186))
1/84: Participants with postbaseline Bilirubin Total (umol/L) >=1.5 * ULN, n/N1 (Bilirubin Total; Atogepant 30 mg BID (N = 86))
(3.4) %: Participants with postbaseline Alkaline Phosphatase (U/L) >=1 * ULN, (%) (Alkaline Phosphatase; Atogepant 60 mg BID (N = 91))
1/179: Participants with postbaseline Alkaline Phosphatase (U/L) >=1.5 * ULN, n/N1 (Alkaline Phosphatase; Atogepant 30 mg QD (N = 183))
(10.6) %: Participants with postbaseline Alkaline Phosphatase (U/L) >=1 * ULN, (%) (Alkaline Phosphatase; Atogepant 30 mg QD (N = 183))
15/179: Participants with postbaseline Bilirubin Total (umol/L) >=1 * ULN, n/N1 (Bilirubin Total; Atogepant 30 mg QD (N = 183))
(3.6) %: Participants with postbaseline Bilirubin Total (umol/L) >=1 * ULN, (%) (Bilirubin Total; Atogepant 30 mg BID (N = 86))
(1.1) %: Participants with postbaseline Bilirubin Total (umol/L) >=1.5 * ULN, (%) (Bilirubin Total; Atogepant 10 mg QD (N = 93)) | Participants with postbaseline Bilirubin Total (umol/L) >=1.5 * ULN, (%) (Bilirubin Total; Atogepant 30 mg QD (N = 183)) | Participants with postbaseline Bilirubin Total (umol/L) >=1 * ULN, (%) (Bilirubin Total; Atogepant 60 mg BID (N = 91)) | Participants with postbaseline Bilirubin Total (umol/L) >=1.5 * ULN, (%) (Bilirubin Total; Atogepant 60 mg QD (N = 186)) | Participants with postbaseline Alkaline Phosphatase (U/L) >=1.5 * ULN, (%) (Alkaline Phosphatase; Atogepant 10 mg QD (N = 93)) | Participants with postbaseline Alkaline Phosphatase (U/L) >=2 * ULN, (%) (Alkaline Phosphatase; Atogepant 10 mg QD (N = 93))
(1.2) %: Participants with postbaseline Bilirubin Total (umol/L) >=1.5 * ULN, (%) (Bilirubin Total; Atogepant 30 mg BID (N = 86))
(6.6) %: Participants with postbaseline Alkaline Phosphatase (U/L) >=1 * ULN, (%) (Alkaline Phosphatase; Atogepant 60 mg QD (N = 186))
3/88: Participants with postbaseline Alkaline Phosphatase (U/L) >=1 * ULN, n/N1 (Alkaline Phosphatase; Atogepant 60 mg BID (N = 91))
19/179: Participants with postbaseline Alkaline Phosphatase (U/L) >=1 * ULN, n/N1 (Alkaline Phosphatase; Atogepant 30 mg QD (N = 183))
3/84: Participants with postbaseline Bilirubin Total (umol/L) >=1 * ULN, n/N1 (Bilirubin Total; Atogepant 30 mg BID (N = 86))
5/92: Participants with postbaseline Alkaline Phosphatase (U/L) >=1 * ULN, n/N1 (Alkaline Phosphatase; Atogepant 10 mg QD (N = 93))
(8.4) %: Participants with postbaseline Bilirubin Total (umol/L) >=1 * ULN, (%) (Bilirubin Total; Atogepant 30 mg QD (N = 183))
8/181: Participants with postbaseline Bilirubin Total (umol/L) >=1 * ULN, n/N1 (Bilirubin Total; Atogepant 60 mg QD (N = 186))
3/92: Participants with postbaseline Bilirubin Total (umol/L) >=1 * ULN, n/N1 (Bilirubin Total; Atogepant 10 mg QD (N = 93))
(3.3) %: Participants with postbaseline Bilirubin Total (umol/L) >=1 * ULN, (%) (Bilirubin Total; Atogepant 10 mg QD (N = 93))
1/92: Participants with postbaseline Bilirubin Total (umol/L) >=1.5 * ULN, n/N1 (Bilirubin Total; Atogepant 10 mg QD (N = 93)) | Participants with postbaseline Alkaline Phosphatase (U/L) >=1.5 * ULN, n/N1 (Alkaline Phosphatase; Atogepant 10 mg QD (N = 93)) | Participants with postbaseline Alkaline Phosphatase (U/L) >=2 * ULN, n/N1 (Alkaline Phosphatase; Atogepant 10 mg QD (N = 93))
